Laboratory results: patent US5376638A (Amylin Pharmaceuticals, Inc., priority 1992, dated 1994)
“Also recorded” adds a separate entry of the source. Where no end group is shown, it is not given here.

What was measured:
[1] = tested on: insulin-stimulated glycogen synthesis in soleus muscle; experiment: soleus muscle assay (insulin-stimulated glycogen synthesis); design: species or system rat; details: for amylin antagonist action in the soleus muscle assay: in the presence of 100 nM rat amylin
Experimental: Concentrations of peptide dissolved in carrier-free buffers are determined by quantitative amino acid analysis, as described therein. The ability of compounds to act as antagonists in this assay is determined by measuring IC50 values. Standard errors are determined by fitting of sigmoidal dose response curves using a four parameter logistic equation (De Lean, A., Munson, P. J., Guardabasso, V. and Rodbard, D. (1988) ALLFIT, Version 2.7, National Institute of Child Health and Human Development, N.I.H. Bethesda, Md., 1 diskette). […] Similar results were obtained with the other antagonist compounds listed above.

[2] = fed rats, antagonist preinfusion; cited from earlier work
[3] = mean arterial pressure after amylin injection in rats; assay type: in vivo, Male Harlan Sprague Dawley rats; details: 100 μg rat amylin s.c., FIG. 1c
Experimental: (§1) Male Harlan Sprague Dawley rats were housed at 22.7°±0.8° C. in a 12:12 hour light:dark cycle (experiments being performed during the light cycle) and fed and watered ad libitum (Diet LM-485, Teklad, Madison, Wis.). Animals used were aged 87-94 days and weighed 353-392 g. They were deprived of food for ~20 hours prior to experimentation.
Anesthesia was induced with 5% halothane, maintained at 2% during surgery and at 0.8-1% during recordings. Tracheotomy and cannulation of the right femoral artery and saphenous vein were performed. The femoral arterial line was connected to a pressure transducer (Spectramed P23XL transducer, Model 13-4615-58 amplifier, Gould, Cleveland, Ohio) and perfused with heparinized saline (2 U/ml) at 3.0 ml/hr. Colonic temperature was measured using a thermistor probe and controller (Model 73A, YSI, Yellow Springs, Ohio) which provided closed-loop control of core temperature by switching a heated operating table. The signal for mean arterial pressure was periodically sampled and stored with 12-bit precision at 1 Hz using a computerized data acquisition system (DT2801A A/D converters, DataTranslation, Marlboro, Mass.; AST Premium 386 computer, AST Research, Irvine, Calif.; Labtech Notebook software, Laboratory Technologies Corp, Wilmington, Mass.). […]

plasma renin activity = plasma renin activity after subcutaneous rat amylin in anesthetized rats; assay type: in vivo, Male Harlan Sprague Dawley rats; details: 0.5 mg i.v. bolus + 1 mg/hr infusion before 100 μg s.c. rat amylin, n=1, FIG. 3
Experimental: as §1
Anesthesia was induced with 5% halothane, maintained at 2% during surgery and at 0.8-1% during recordings. Tracheotomy and cannulation of the right femoral artery and saphenous vein were performed. […] Colonic temperature was measured using a thermistor probe and controller (Model 73A, YSI, Yellow Springs, Ohio) which provided closed-loop control of core temperature by switching a heated operating table. […]
The remainder was frozen at -20° C. for measurement of plasma renin activity. Plasma renin activity was measured using the Gammacoat™ [^125 I] radioimmunoassay kit (Incstar Corp, Stillwater, Minn.) modified to accomodate small sample volumes. The assay system measured the renin-catalysed rate of generation of angiotensin-I in the presence of phenylmethylsulfonyl fluoride (PMSF) to prevent its proteolytic breakdown and/or conversion to angiotensin-II. Angiotensin-I generated in 90 minutes at 37° C. was then detected by specific radioimmunoassay with less than 0.02% cross reactivity to angiotensin-II, angiotensin-III or tetradecapeptide (renin substrate). […]

[4] = plasma lactate and glucose after subcutaneous rat amylin in anesthetized rats; assay type: in vivo, Male Harlan Sprague Dawley rats; details: 0.5 mg i.v. bolus + 1 mg/hr infusion before 100 μg s.c. rat amylin
[5] = tested on: amylin-induced hypocalcemia; experiment: amylin-induced hypocalcemia with antagonist infusion; assay type: in vivo; details: 1.5 mg + 3 mg/hr infusion, FIG. 4
CGRP receptors = CGRP receptors (Homo sapiens, UniProt O60894+Q16602); experiment: affinity for CGRP receptors in vitro; assay type: binding
vascular CGRP1 receptor = biological target: T1, vascular CGRP1 receptor (Rattus norvegicus, UniProt Q63118+Q9JJ74); experiment: hypotensive response to intravenous amylin in vivo; details: three times the dose used in this study
T1 construct: from tissue; host or cells: vasculature of the intact animal (in vivo blood pressure response)
T1 sequence (Q63118 24-464): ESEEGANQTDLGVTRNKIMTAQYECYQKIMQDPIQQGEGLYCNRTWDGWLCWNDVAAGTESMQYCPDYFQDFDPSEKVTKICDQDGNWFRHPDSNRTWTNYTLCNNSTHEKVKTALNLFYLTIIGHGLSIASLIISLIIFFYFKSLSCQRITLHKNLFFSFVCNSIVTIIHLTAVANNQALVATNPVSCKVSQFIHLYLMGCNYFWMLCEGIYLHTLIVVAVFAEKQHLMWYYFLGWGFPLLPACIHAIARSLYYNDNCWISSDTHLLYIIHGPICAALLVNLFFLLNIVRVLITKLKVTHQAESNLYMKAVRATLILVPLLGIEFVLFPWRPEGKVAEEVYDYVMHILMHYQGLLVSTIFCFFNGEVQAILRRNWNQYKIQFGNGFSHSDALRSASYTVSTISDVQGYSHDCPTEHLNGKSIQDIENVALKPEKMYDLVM
T1 sequence (Q9JJ74 27-148 partner): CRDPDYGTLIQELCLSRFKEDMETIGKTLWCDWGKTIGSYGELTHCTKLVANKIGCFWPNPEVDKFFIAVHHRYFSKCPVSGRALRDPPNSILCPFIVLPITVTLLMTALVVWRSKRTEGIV

Sequence of CGRP receptors (Q16602 23-461): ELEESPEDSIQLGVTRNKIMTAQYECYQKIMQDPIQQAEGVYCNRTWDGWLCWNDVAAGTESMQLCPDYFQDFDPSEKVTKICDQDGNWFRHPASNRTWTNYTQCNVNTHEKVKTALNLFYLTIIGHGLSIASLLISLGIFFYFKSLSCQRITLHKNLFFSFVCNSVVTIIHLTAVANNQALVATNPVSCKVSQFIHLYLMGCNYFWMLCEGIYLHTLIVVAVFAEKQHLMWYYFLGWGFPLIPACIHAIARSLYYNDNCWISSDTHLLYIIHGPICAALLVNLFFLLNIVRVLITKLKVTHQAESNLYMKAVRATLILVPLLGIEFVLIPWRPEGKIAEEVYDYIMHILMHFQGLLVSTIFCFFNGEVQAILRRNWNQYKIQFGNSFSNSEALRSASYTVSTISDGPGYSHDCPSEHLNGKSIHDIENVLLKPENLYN
Sequence of CGRP receptors (O60894 27-148 partner): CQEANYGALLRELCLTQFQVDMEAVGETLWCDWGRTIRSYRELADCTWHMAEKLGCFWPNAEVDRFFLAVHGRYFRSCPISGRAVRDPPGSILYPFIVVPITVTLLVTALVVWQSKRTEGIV

Which “agonist activity in the soleus muscle assay” value [1] does the source give for ^8-32 calcitonin(salmon) here?
The value was “negligible agonist activity”.

What about the “amylin antagonist action in the soleus muscle assay” value [1] of the same substance?
Its value is “act as amylin antagonists”.

Which “agonist activity in the soleus muscle assay” value [1] does the source give for “^8-37 amylin (ATQRLANFLVHSSNNFGAILSSTNVGSNTY; ends and bridges not checked; UniProt P10997 41-70, looked up, fragment) [^ 8-37 amylin, amylin receptor antagonist]” here?
The value was “negligible agonist activity”.

And the “amylin antagonist action in the soleus muscle assay” value [1]?
The value was “act as amylin antagonists”.

What does the source list for “^8-37 CGRP (VTHRLAGLLSRSGGVVKNNFVPTNVGSKAF; ends and bridges not checked; UniProt P06881 90-119, looked up, fragment) [reference compound]”?
agonist activity in the soleus muscle assay [1]: negligible agonist activity; amylin antagonist action in the soleus muscle assay [1]: act as amylin antagonists; insulin concentration 30 minutes following arginine infusion versus normal controls [2]: almost twice as high

With “rat amylin: Synthetic rat amylin (Bachem, Torrance, Calif.)” as the substance, how does the “change in mean arterial pressure” value [3] read?
The value was “lack of change; also recorded: not associated with any significant change”.

For “acetyl-^30 Asn^32 Tyr^8-32 calcitonin(salmon)”, which “amylin-induced elevation of plasma renin activity after antagonist preinfusion” value (plasma renin activity) is on record?
Its value is “no amylin-induced elevation”.

What about the “amylin-induced increase in plasma glucose after antagonist infusion” value [4] of the same substance?
Its value is “prevented”.

What about the “amylin-induced increase in plasma lactate after antagonist infusion” value [4] of the same substance?
Its value is “prevented”.

And the “prevention of amylin-induced hypocalcemia” value [5]?
The value was “did not prevent”.

And the “affinity for CGRP receptors in vitro” value (CGRP receptors)?
The value was “low affinity”.

And the “block of the hypotensive response to intravenous amylin” value (vascular CGRP1 receptor)?
The value was “does not fully block”.
